Test systems include SNB-75 CNS; MALME-3M melanoma; BT-549 breast; CCRF-CEM leukemia; HOP-62 NSCLC; HT29 colon; OVCAR-5 ovarian; MCF7 breast; CAKI-1 renal; OVCAR-8 ovarian.
What all share (assay): inhibition of tumour cell growth, NCI panel, 48 h

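Step 1: Grow cells in 96-well plates. Step 2: Expose to compound for 48 hours at 5 concentrations. Step 3: Interpolate endpoints linearly; if unreached, use highest concentration. Abbreviation: GI50, concentration required for 50% inhibition of growth. TGI denotes the concentration required for complete inhibition of growth.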

With `CCOC(=O)CCC(NC(=O)Cc1ccc(Oc2nc3ccccc3nc2-c2ccccc2)cc1)C(=O)OCC` (centres undefined), the TGI with SNB-75 CNS, in the assay on MALME-3M melanoma, with BT-549 breast, with CCRF-CEM leukemia, in the assay with HOP-62 NSCLC and in the assay with HT29 colon was greater than 100 µM throughout. Also, the TGI in the assay with OVCAR-5 ovarian, in the assay on MCF7 breast and in the assay with CAKI-1 renal was greater than 100 µM throughout.
Turning to `CN(C)CCNC(=O)c1ccc(Cl)c2cc3ccccc3nc12`, the TGI with SNB-75 CNS was 5.84 µM; in the assay with MALME-3M melanoma it was 2.26 µM; in the assay on BT-549 breast it was 7.82 µM; in the assay on CCRF-CEM leukemia it was 4.64 µM; in the assay on HOP-62 NSCLC it was 4.6 µM; in the assay on HT29 colon, 4.9 µM. The TGI in the assay with OVCAR-5 ovarian came out at 10.7 µM; with MCF7 breast, 3.58 µM; in the assay on CAKI-1 renal, 11.6 µM; in the assay on OVCAR-8 ovarian, 6.44 µM.
For `COc1c(C)c(C/C=C(\C)CC/C=C(\C)CC/C=C(\C)CCC=C(C)C)c(OC)c2ccccc12`, the TGI was greater than 100 µM in the assay on SNB-75 CNS; greater than 100 µM with BT-549 breast; 64.1 µM with CCRF-CEM leukemia; greater than 100 µM in the assay with HOP-62 NSCLC; greater than 100 µM in the assay on HT29 colon; greater than 100 µM with OVCAR-5 ovarian. Besides, the TGI in the assay with MCF7 breast, with CAKI-1 renal and with OVCAR-8 ovarian was greater than 100 µM each time.
Regarding `CCCC(=O)NC(Nc1ccc(F)cc1)(C(F)(F)F)C(F)(F)F`, the TGI was greater than 100 µM with SNB-75 CNS; greater than 100 µM with MALME-3M melanoma; greater than 100 µM with BT-549 breast; greater than 26.7 µM with CCRF-CEM leukemia; greater than 100 µM in the assay on HOP-62 NSCLC; greater than 100 µM with HT29 colon. Further, the TGI with OVCAR-5 ovarian, in the assay on MCF7 breast, with CAKI-1 renal and in the assay on OVCAR-8 ovarian was greater than 100 µM each time.
`O=C(O)CNC(=O)c1ccc2cc(C(=O)N3CC(CCl)c4ccc([N+](=O)[O-])cc43)[nH]c2c1` (centres undefined): the TGI in the assay with SNB-75 CNS, in the assay on BT-549 breast, in the assay on CCRF-CEM leukemia, in the assay with HT29 colon, in the assay with OVCAR-5 ovarian and with MCF7 breast was greater than 100 µM throughout. Besides, the TGI with CAKI-1 renal and in the assay on OVCAR-8 ovarian was greater than 100 µM throughout.
Regarding `O=[N+]([O-])c1ccc(N2N=C(c3ccc4ccccc4c3O)CC2c2ccc(Cl)cc2)c([N+](=O)[O-])c1` (centres undefined), the TGI in the assay on SNB-75 CNS is greater than 100 µM; with MALME-3M melanoma it was greater than 100 µM; in the assay with BT-549 breast, greater than 100 µM; with CCRF-CEM leukemia it was 42.7 µM; in the assay on HOP-62 NSCLC, greater than 100 µM; in the assay with HT29 colon, greater than 100 µM. The TGI with OVCAR-5 ovarian, with MCF7 breast, with CAKI-1 renal and with OVCAR-8 ovarian was greater than 100 µM in each case.
As to `COc1ccc(N=C2C(=Nc3ccc(OC)cc3)N(c3ccc(N(C)C)cc3)C(=S)N2c2ccc(OC)cc2)cc1`, the TGI in the assay with SNB-75 CNS was greater than 91.8 µM; with MALME-3M melanoma, greater than 100 µM; in the assay on BT-549 breast it was greater than 100 µM; in the assay with CCRF-CEM leukemia, greater than 100 µM; in the assay with HOP-62 NSCLC, greater than 100 µM; in the assay on HT29 colon it was greater than 100 µM. Also, the TGI in the assay on OVCAR-5 ovarian was greater than 100 µM; in the assay on MCF7 breast it was greater than 100 µM; in the assay on CAKI-1 renal, greater than 100 µM; in the assay on OVCAR-8 ovarian it was greater than 52 µM.
In the case of `CC(=O)OCCCCn1cc(Cn2ccc(=O)n(Cc3cn(CCCCOC(C)=O)nn3)c2=O)nn1`, the TGI with SNB-75 CNS, in the assay on MALME-3M melanoma, in the assay with BT-549 breast, in the assay on CCRF-CEM leukemia, in the assay on HOP-62 NSCLC and in the assay with OVCAR-5 ovarian was greater than 100 µM each time. The TGI in the assay on MCF7 breast, with CAKI-1 renal and in the assay with OVCAR-8 ovarian was greater than 100 µM throughout.
For `Cc1cc(N2CCCC2)c([N+](=O)[O-])cc1[N+](=O)[O-]`, the TGI with SNB-75 CNS, in the assay on MALME-3M melanoma, in the assay with BT-549 breast, with CCRF-CEM leukemia, in the assay on HT29 colon and in the assay with MCF7 breast was greater than 100 µM each time. The TGI in the assay with CAKI-1 renal and in the assay with OVCAR-8 ovarian was greater than 100 µM each time.
On to `Nc1nc(=O)n(C2OC(CO)C(O)C2O)c2ncc(-c3ccc(-c4ccccc4)cc3)nc12` (centres undefined), for which the TGI in the assay on SNB-75 CNS, in the assay with MALME-3M melanoma, in the assay with BT-549 breast, with CCRF-CEM leukemia, in the assay with HOP-62 NSCLC and in the assay with HT29 colon was greater than 100 µM each time. For the same molecule, the TGI in the assay on OVCAR-5 ovarian, with MCF7 breast, with CAKI-1 renal and with OVCAR-8 ovarian was greater than 100 µM in each case.
In the case of `Cc1ccc2c(C(=O)c3c(C)n(CCN4CCOCC4)c4ccccc34)cccc2c1`, the TGI was 37.6 µM in the assay on MALME-3M melanoma; 51.6 µM with BT-549 breast; 13 µM with CCRF-CEM leukemia; 99.6 µM with HOP-62 NSCLC; 25.6 µM in the assay with HT29 colon; 96.6 µM with OVCAR-5 ovarian. Also, the TGI was 16.8 µM in the assay with MCF7 breast, greater than 100 µM in the assay on CAKI-1 renal and 56.1 µM with OVCAR-8 ovarian.
Take `CCOc1ccc(/C=C2\NC(=S)N(/C=C3\C(=O)Oc4ccccc4C3=O)C2=O)cc1`: the TGI in the assay on SNB-75 CNS was 61.6 µM; in the assay with BT-549 breast it was 54.9 µM; in the assay on CCRF-CEM leukemia, 40.4 µM; in the assay with HOP-62 NSCLC, 61.9 µM; with HT29 colon, 82.1 µM; with OVCAR-5 ovarian, greater than 100 µM. Also, the TGI is 63.1 µM with MCF7 breast, 53.5 µM in the assay with CAKI-1 renal and 36.7 µM in the assay on OVCAR-8 ovarian.
For the molecule `CC(=O)OC(C)c1cc2c(s1)C(=O)c1c(C(C)OC(C)=O)csc1C2=O` (centres undefined), the TGI with SNB-75 CNS stood at 4.43 µM; in the assay with MALME-3M melanoma, 0.412 µM; in the assay with BT-549 breast, 3.83 µM; in the assay on CCRF-CEM leukemia, 4.44 µM; with HOP-62 NSCLC, 2.5 µM; with HT29 colon it was 4.35 µM. Further, the TGI with OVCAR-5 ovarian turned out to be 3.41 µM; with MCF7 breast it was 3.09 µM; in the assay on OVCAR-8 ovarian, 2.05 µM. Besides, the GI50 is 0.186 µM with MALME-3M melanoma, 2.14 µM with BT-549 breast and 0.452 µM in the assay on OVCAR-8 ovarian.
With `CC1=CCC[C@H]2[C@](C)(CC3=CC(=O)C(Sc4ccccc4)=CC3=O)[C@@H](C)CC[C@]12C`, the TGI in the assay on SNB-75 CNS was 54.5 µM; in the assay with BT-549 breast, 34.1 µM; with CCRF-CEM leukemia, 17.4 µM; in the assay on HOP-62 NSCLC, 32.6 µM; with OVCAR-5 ovarian, 32.1 µM; in the assay on MCF7 breast it was 51.7 µM. The results for the TGI in the assay with CAKI-1 renal and in the assay with OVCAR-8 ovarian were 36.7 µM and 26.4 µM, respectively. Also, the GI50 with CCRF-CEM leukemia was 3.89 µM; in the assay with MCF7 breast, 22.6 µM.
For the molecule `CC(C)(C)OC(=O)N1[C@@H]2Cc3ccc(N)cc3[C@@]1(C)c1ccccc12`, the TGI in the assay with MALME-3M melanoma was 91 µM; in the assay with BT-549 breast, 43.4 µM; in the assay on CCRF-CEM leukemia, 64.9 µM; in the assay with HOP-62 NSCLC it was greater than 100 µM; in the assay with HT29 colon, 44.1 µM; with OVCAR-5 ovarian it was greater than 100 µM. Besides, the TGI in the assay on MCF7 breast and in the assay on CAKI-1 renal was greater than 100 µM throughout.
Take `CC12CCC(C(=Nc3cc(C(F)(F)F)cc(C(F)(F)F)c3)C1=O)C2(C)C` (centres undefined): the TGI was 69.4 µM with MALME-3M melanoma; greater than 100 µM in the assay on BT-549 breast; greater than 100 µM with CCRF-CEM leukemia; greater than 100 µM with HOP-62 NSCLC; greater than 100 µM in the assay on HT29 colon; greater than 100 µM with OVCAR-5 ovarian. For the same molecule, the TGI with MCF7 breast, in the assay with CAKI-1 renal and with OVCAR-8 ovarian was greater than 100 µM throughout.
As for `c1csc(-c2ccsc2-c2ccsc2)c1`, the TGI with SNB-75 CNS, with BT-549 breast, with CCRF-CEM leukemia, in the assay with HOP-62 NSCLC, with HT29 colon and in the assay with OVCAR-5 ovarian was greater than 100 µM each time. For the same molecule, the TGI in the assay with MCF7 breast, with CAKI-1 renal and in the assay with OVCAR-8 ovarian was greater than 100 µM in each case.
As to `O=C1C2=C(SCCS2)C(=O)c2c(Sc3ccc(Cl)cc3)c(Sc3ccc(Cl)cc3)c(Sc3ccc(Cl)cc3)c(Sc3ccc(Cl)cc3)c21`, the TGI is greater than 100 µM with SNB-75 CNS; 69.8 µM in the assay with MALME-3M melanoma; greater than 100 µM in the assay with BT-549 breast; 23.8 µM in the assay with CCRF-CEM leukemia; greater than 100 µM in the assay on HOP-62 NSCLC; greater than 100 µM in the assay on OVCAR-5 ovarian. For the same molecule, the TGI in the assay with MCF7 breast, in the assay on CAKI-1 renal and in the assay on OVCAR-8 ovarian was greater than 100 µM in each case.
Take `O=[N+]([O-])c1cccc(Cl)c1Oc1ccc(S(=O)(=O)/N=C(\NO)Nc2ccc(Cl)cc2)cc1`: the TGI with MALME-3M melanoma turned out to be 31.2 µM; in the assay on BT-549 breast, 29.9 µM; in the assay with CCRF-CEM leukemia, 29.7 µM; with HOP-62 NSCLC it was 45.4 µM; with HT29 colon, 30.8 µM; in the assay on OVCAR-5 ovarian, 32.8 µM. Also, the TGI with MCF7 breast was 32.2 µM; with CAKI-1 renal, 25.8 µM; in the assay with OVCAR-8 ovarian, 39.6 µM.
As for `O=C(C(Cl)=C(N1CCCCC1)N1CCCCC1)C(Cl)Cl`, the TGI with MALME-3M melanoma, in the assay on BT-549 breast, with CCRF-CEM leukemia, in the assay on HOP-62 NSCLC, in the assay with HT29 colon and in the assay on MCF7 breast was greater than 100 µM each time. The TGI in the assay on CAKI-1 renal and with OVCAR-8 ovarian was greater than 100 µM in each case.
Regarding `NC(=Nc1ccccc1)c1ccccc1N`, the TGI with SNB-75 CNS, in the assay on BT-549 breast, with CCRF-CEM leukemia, in the assay on HOP-62 NSCLC, with HT29 colon and in the assay on OVCAR-5 ovarian was greater than 100 µM in each case. Besides, the TGI in the assay with MCF7 breast, with CAKI-1 renal and in the assay on OVCAR-8 ovarian was greater than 100 µM each time.

Source of the values: PubChem BioAssay (NCI).
